This note sets out measurements from patent publication US9145385B2, “Crystalline salts of R)-3-[6-amino-pyridin-3-yl]-2-(1-cyclohexy1-1H-imidazol-4-yl)-propionic acid” (Sanofi, priority 2011, dated 2015).

Data set [1] is described as follows: Dynamic Vapor Sorption (DVS) moisture sorption/desorption isotherm at 25° C. It is filed as physicochemical. On the procedure:
Moisture sorption/desorption isotherms were recorded on a SPS11-10μ from Projekt Messtechnik (Ulm, Germany). One cycle was run at 25° C., in which the sample was first stepwise decreased to 0% RH and then the relative humidity was stepwise increased from 0 to 95% and the weight of the sample was measured. Typical total measurement times for both cycles were about 20 to 30 hours.
The measurement was performed as disclosed in Example 7 with (R)-3-[6-amino-pyridin-3-yl]-2-(1-cyclohexyl-1H-imidazol-4-yl)-propionic acid (free acid, amorphous) and the received data are shown in the following table 2.

Data set [2] can be described thus: Chemical stability under elevated temperature and humidity. To be noted: result in words. The class given is physicochemical.

SMILES strings stand for the structures.

Turning to `Nc1ccc(CC(C(=O)O)c2cn(C3CCCCC3)cn2)cn1` (stereo not shown) [3-[6-amino-pyridin-3-yl]-2-(1-cyclohexyl-1H-imidazol-4-yl)-propionic acid, reference compound], the “hygroscopicity (absorption or adsorption of water molecules from the surrounding environment)” value in data set [1] (result in words) is reported as “hygroscopic”. Regarding `Nc1ccc(C[C@@H](C(=O)[O-])c2cn(C3CCCCC3)cn2)cn1.[Na+]` [(R)-3-[6-amino-pyridin-3-yl]-2-(1-cyclohexyl-1H-imidazol-4-yl)-propionic acid sodium salt monohydrate], in data set [1] (DVS 25° C., at 0.2% RH, phase transition monohydrate to anhydrate), the desorption of water is listed as −4.4%.

Take `Nc1ccc(C[C@@H](C(=O)O)c2cn(C3CCCCC3)cn2)cn1` [(R)-3-[6-amino-pyridin-3-yl]-2-(1-cyclohexyl-1H-imidazol-4-yl)-propionic acid]: in data set [2], the chemical stability result is given as “chemically not stable” and the “enantiomeric purity on storage” value is listed as “reduced within a short time”.
